In brackets after ≈: the same amount, converted by molar mass.
What was measured:
A549 [1] = assay: Cytotoxicity against human A549 cells assessed as reduction in cell viability up to 4 mM after 24 hrs by MTT assay; format: cell-based; conditions: a549, 24 h
L929 [2] = assay: Cytotoxicity against mouse L929 cells assessed as reduction in cell viability up to 4 mM after 24 hrs by MTT assay; format: cell-based; conditions: l929, 24 h
L929 [3] = assay: Cytotoxicity against mouse L929 cells after 24 hrs by MTT assay; format: cell-based; conditions: L929, 24 h
[4] = Solubility of the compound in pH 7.4 PBS buffer by ultraviolet spectroscopic method; format: physicochemical
[5] = Critical micellar concentration of the compound in pyrene/acetone solution ultrasonicated for 30 mins followed by incubation in water bath at 60 degC for 40 mins and subsequent incubation at 40 degC for 12 hrs by fluorescence assay; format: physicochemical; conditions: buffer
A549 [6] = assay: Cytotoxicity against human A549 cells after 24 hrs by MTT assay; format: cell-based; conditions: A549, 24 h
[7] = Cytotoxicity against human A549 cells assessed as cell viability at 0.05 mM after 24 hrs by MTT assay relative to control; format: cell-based; conditions: read-out: Activity
[8] = Cytotoxicity against mouse L929 cells assessed as cell viability at 0.05 mM after 24 hrs by MTT assay relative to control; format: cell-based; conditions: read-out: Activity
Rattus norvegicus [9] = assay: Anesthetic activity in Sprague-Dawley rat assessed as anesthetic duration time at 0.073 mmol/kg, iv for 10 secs; format: functional
[10] = Prodrug activation in Sprague-Dawley rat plasma assessed as propofol release at 4 mg after 5 mins by HPLC analysis; format: cell-free
[11] = Prodrug activation in Sprague-Dawley rat plasma assessed as propofol release at 4 mg after 24 hrs by HPLC analysis; format: cell-free
Rattus norvegicus [12] = assay: Anesthetic activity in Sprague-Dawley rat assessed as onset time for loss of righting reflex at 0.073 mmol/kg, iv for 10 secs; format: functional
[13] = Solubility of the compound in pH 7.4 PBS buffer containing 60% methanol by ultraviolet spectroscopic method; format: physicochemical
Rattus norvegicus [14] = assay: Toxicity in Sprague-Dawley rat assessed as death at 0.073 mmol/kg, iv for 10 secs; format: organism-based; conditions: in vivo, 10 s
[15] = Prodrug activation in Sprague-Dawley rat plasma assessed as propofol release at 4 mg after 1 mins by HPLC analysis; format: cell-free
[16] = Prodrug activation in Sprague-Dawley rat plasma assessed as propofol release at 4 mg after 20 mins by HPLC analysis; format: cell-free

Row | Compound | EC50 (L929 [3]) [µM] | solubility [4] [µg/mL] | EC50 (A549 [6]) [µM] | viability at 24 h, 50 µM [7] [%] | viability at 24 h, 50 µM [8] [%] | also measured
1 | COCCOCCOCCO | – | – | – | – | – | Activity (A549 [1]): Non-Toxic; Activity (L929 [2]): Non-Toxic
2 | COCCOCCOCCOCCOCCOCCOCCOC(=O)Oc1c(C(C)C)cccc1C(C)C | 110 | 2730 (≈ 5010 µM) | 500 | > 90 | > 90 | CMC [5]: 1.5 mM
3 | COCCOCCOCCOCCOCCOCCOCCOCCOCCOCCOCC(=O)Oc1c(C(C)C)cccc1C(C)C | 490 | > 371000 | 600 | > 90 | > 90 | Time (Rattus norvegicus [9]): 8.5 min; Drug metabolism [10]: Metabolite_Detected; Drug metabolism [11]: Metabolite_Detected; Time (Rattus norvegicus [12]): 0 s
4 | COCCOCCOCCOCOc1c(C(C)C)cccc1C(C)C | 1170 | 280 (≈ 790 µM) | > 10000 | > 90 | > 90 | –
5 | COCCOCCOCCOC(=O)Oc1c(C(C)C)cccc1C(C)C | 2290 | 190 (≈ 516 µM) | 2130 | > 90 | > 90 | –
6 | COCCOCCOCCOCCOCCOCCOCC(=O)Oc1c(C(C)C)cccc1C(C)C | 110 | 2020 (≈ 3920 µM) | 520 | > 90 | > 90 | –
7 | COCCOCCOCCOCC(=O)Oc1c(C(C)C)cccc1C(C)C | 650 | 990 (≈ 2590 µM) | 740 | > 90 | > 90 | –
8 | COCCOCCOCCOCCOCOc1c(C(C)C)cccc1C(C)C | 900 | 570 (≈ 1430 µM) | 1730 | > 90 | > 90 | –
9 | COCCOCCOC(=O)Oc1c(C(C)C)cccc1C(C)C | 4600 | – | > 10000 | > 90 | > 90 | solubility [13]: 70 µg/mL (≈ 216 µM)
10 | COCCOCCOCCOCCOCCOCCOCCOCCOCCOCCOCOc1c(C(C)C)cccc1C(C)C | 210 | > 289000 | 610 | > 90 | > 90 | Activity (Rattus norvegicus [14]): Toxic; Drug metabolism [11]: Metabolite_Notdetected
11 | COCCOCCOCOc1c(C(C)C)cccc1C(C)C | 4870 | – | > 10000 | > 90 | > 90 | solubility [13]: 200 µg/mL (≈ 644 µM)
12 | COCCOCCOCCOCCOC(=O)Oc1c(C(C)C)cccc1C(C)C | 1390 | 380 (≈ 921 µM) | 1360 | > 90 | > 90 | –
13 | COCCOCCOCCOCCOCCOCCOCCOCC(=O)Oc1c(C(C)C)cccc1C(C)C | 120 | > 216000 | 520 | > 90 | > 90 | CMC [5]: 1.3 mM; Time (Rattus norvegicus [9]): 10.5 min; Drug metabolism [15]: Metabolite_Detected; Time (Rattus norvegicus [12]): 0 s
14 | COCCOCCOCCOCCOCC(=O)Oc1c(C(C)C)cccc1C(C)C | 440 | 1580 (≈ 3700 µM) | 630 | > 90 | > 90 | –
15 | COCCOCCOCCOCCOCCOCCOC(=O)Oc1c(C(C)C)cccc1C(C)C | 510 | 830 (≈ 1660 µM) | 730 | > 90 | > 90 | –
16 | COCCOCCOCCOCCOCCOCCOCCOCCOCCOCCO | – | – | – | – | – | Activity (A549 [1]): Non-Toxic; Activity (L929 [2]): Non-Toxic
17 | COCCOCCOCC(=O)Oc1c(C(C)C)cccc1C(C)C | 1410 | – | 4150 | > 90 | > 90 | solubility [13]: 420 µg/mL (≈ 1240 µM)
18 | COCCOCCOCCOCCOCCOCCOCCOCOc1c(C(C)C)cccc1C(C)C | 130 | 55400 (≈ 104000 µM) | 500 | > 90 | > 90 | CMC [5]: 0.6 mM; Activity (Rattus norvegicus [14]): Toxic
19 | COCCOCCOCCOCCOCCOCCOCOc1c(C(C)C)cccc1C(C)C | 140 | 1250 (≈ 2570 µM) | 510 | > 90 | > 90 | –
20 | COCCOCCOCCOCCOCCOCCOCCOCCOCCOCCOC(=O)Oc1c(C(C)C)cccc1C(C)C | 420 | > 315000 | 400 | > 90 | > 90 | Time (Rattus norvegicus [9]): 5.6 min; Drug metabolism [16]: Metabolite_Detected; Time (Rattus norvegicus [12]): 0 s
21 | CC(C)c1cccc(C(C)C)c1O [PROPOFOL] | 4730 | – | 9550 | – | – | Time (Rattus norvegicus [9]): 10.3 min; Time (Rattus norvegicus [12]): 0 s

Source: ChEMBL document CHEMBL4261618, “Monodisperse oligoethylene glycols modified Propofol prodrugs” (Bioorg Med Chem Lett, 2018)
